Measurements from PubChem BioAssay (NCI).
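Growth conditions: 96-well plates. Treatment: test compound, 48 hours, 5 concentrations. Analysis: linear interpolation between bracketing concentrations; unreached endpoints set to highest concentration. Here, GI50 denotes the concentration required for 50% inhibition of growth. TGI is the concentration that stops growth completely.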

Key:
Test in all cases: NCI anticancer screen, dose series, 48 h
[1] = system: OVCAR-5 ovarian
[2] = system: 786-0 renal
[3] = system: RXF 393 renal
[4] = system: IGROV1 ovarian
[5] = system: SK-MEL-5 melanoma
[6] = system: HOP-62 NSCLC
[7] = system: SF-268 CNS
[8] = system: COLO 205 colon
[9] = system: CCRF-CEM leukemia

SMILES	GI50 [1] [µM]	TGI [1] [µM]	GI50 [2] [µM]	TGI [2] [µM]	GI50 [3] [µM]	TGI [3] [µM]	GI50 [4] [µM]	TGI [4] [µM]	GI50 [5] [µM]	TGI [5] [µM]	GI50 [6] [nM]	TGI [6] [µM]	GI50 [7] [µM]	TGI [7] [µM]	GI50 [8] [nM]	TGI [8] [µM]	GI50 [9] [µM]	TGI [9] [µM]
C[C@H]1CCCC(O)C(O)[C@@H]2C[C@H](O[Si](C)(C)C(C)(C)C)C[C@H]2[C@H](O[Si](C)(C)C(C)(C)C)C(O)C(O)C(=O)O1 (stereo not given in full)	31.8	> 100	10.6	22.3	31.8	> 100	16.2	43	45.4	> 100	11000	27.6	20	> 100	> 100000	> 100	28	> 100
Cc1ccc(-c2nc3nc(-c4ccc(F)cc4)nc(N4CCCNCC4)c3o2)cc1	1.65	3	1.83	3.56	1.59	3.11	1.59	3.01	1.75	3.16	1740	3.51	1.73	3.44	2030	4.07	0.293	1.04
CCCCCCCCCCCCCCCC[N+]1(C)CCOCC1	1.14	2.89	1.52	2.99	–	–	–	–	–	–	1340	3.15	1.63	4.22	1150	2.42	1.09	3.02
N#CNC(N)=Nc1ccc(Cl)cc1	–	> 100	–	> 100	–	> 100	–	> 100	–	> 100	–	> 100	–	> 100	–	> 100	–	–
Cc1ccc(NC(=O)c2cc(S(=O)(=O)N3C(=O)NC(=O)NS3(=O)=O)c(S)cc2Cl)cc1	56.5	> 100	40.4	> 100	11.5	54.5	26.1	90.4	15.4	32	33900	> 100	38.1	> 100	39800	> 100	15.9	40.3
CNC(=O)c1nn(C)c2c1C(C)(C)Cc1cnc(Nc3ccc(N4CCN(C)CC4)cc3)nc1-2	0.504	> 9.01	0.649	> 10	0.343	> 4.5	0.182	1.6	7.44	> 10	435	9.84	1.34	> 10	313	3.12	1.58	> 10
COCCOCCOC1=CC(=O)c2c(O)ccc(O)c2C1=O	–	–	–	3.2	–	3.68	–	3.21	–	0.329	–	3.44	–	6.93	–	0.883	–	4.48
CC(C)(C)OC(=O)NCCCCCCCn1c2c(c3ccccc3c1=O)C(=O)c1ccccc1-2	> 100	> 100	23.2	55.4	16.2	43.5	26.9	> 100	9.84	27.6	–	–	25.4	93.6	63700	> 100	76.1	> 100
O=C1CCCCN1CCCCC#Cc1cccc(C#Cc2cccnc2)c1	17.7	41.7	13	27.8	–	–	14.7	43.1	14.3	36.3	15200	31.4	27	> 100	6880	21	30.9	> 100
O=C(O)[C@H](c1ccccc1)[C@@H](C(=O)O)c1ccccc1	–	> 100	–	> 100	–	> 100	–	> 100	–	> 100	–	> 100	–	> 100	–	> 100	–	–
O=C(N/N=C/c1ccccc1O)c1ccccc1	2.5	> 100	0.339	1.83	2.68	50.9	1.84	> 100	2.97	> 100	1610	8.61	1.07	> 100	750	> 100	0.35	8.3
COc1cc(NCCCCCCCNC(C)C)c2nccc(C)c2c1	15.4	29.7	14.8	28.6	15.4	33.7	13.3	34.5	11.9	24.6	13800	27.6	16.3	31.9	2340	6.54	12.1	33
O=c1cc(/C=C/c2ccccc2)[nH]c2cc3c(cc12)OCO3	–	14.2	–	12.7	4.27	22	–	19.8	2.17	12.3	–	14.5	7.12	30.4	–	6.43	–	–
O=S(=O)(NCCCNc1nccc(-c2c(-c3ccc(F)cc3)nc3sccn23)n1)c1ccc2ccccc2c1	> 100	> 100	6.19	> 100	5.21	> 100	5.37	> 100	4.17	> 100	> 100000	> 100	6.46	> 100	2220	4.81	3.13	> 100
COC(=O)C1=Nc2c(C)nn(-c3ccccc3)c2N=C(c2ccccc2)C1	–	> 10	–	> 10	–	–	–	> 10	–	> 10	–	> 10	–	> 10	–	> 10	–	–
CCCCn1c(-c2ccc(C(=O)O/N=C(\N)c3ccc4c(c3)OCO4)cc2)nc(-c2ccccc2)c1-c1ccccc1	4.77	> 100	2.5	6.15	1.85	4.93	0.465	1.8	1.98	4.54	1820	4.03	1.97	4.37	2690	11	1.05	3.4
